# Test results reported in ChEMBL document CHEMBL1255414, “Combination of V106I and V179D polymorphic mutations in human immunodeficiency virus type 1 reverse transcriptase confers resistance to efavirenz and nevirapine but not etravirine” (Antimicrob Agents Chemother, 2010).
# Legend:
# [1] = tested on: Human immunodeficiency virus 1; test: Antiviral activity against recombinant HIV1 harboring reverse transcriptase V179D mutant clone infected in MAGIC-5 cells using 5-bromo4-chloro-3-indolyl-beta-D-galactopyranoside staining based light microscopy; assay type: functional, organism-based; details: Human immunodeficiency virus 1, MAGIC-5
# [2] = tested on: Human immunodeficiency virus 1; test: Antiviral activity against recombinant HIV1 harboring reverse transcriptase V106I mutant clone infected in MAGIC-5 cells using 5-bromo4-chloro-3-indolyl-beta-D-galactopyranoside staining based light microscopy; assay type: functional, organism-based; details: Human immunodeficiency virus 1, MAGIC-5
# [3] = tested on: Human immunodeficiency virus 1; test: Antiviral activity against recombinant HIV1 harboring reverse transcriptase V106A mutant clone infected in MAGIC-5 cells using 5-bromo4-chloro-3-indolyl-beta-D-galactopyranoside staining based light microscopy; assay type: functional, organism-based; details: Human immunodeficiency virus 1, MAGIC-5
# [4] = tested on: Human immunodeficiency virus 1; test: Antiviral activity against recombinant HIV1 harboring reverse transcriptase V106A/V179D mutant clone infected in MAGIC-5 cells using 5-bromo4-chloro-3-indolyl-beta-D-galactopyranoside staining based light microscopy; assay type: functional, organism-based; details: Human immunodeficiency virus 1, MAGIC-5
# [5] = tested on: Human immunodeficiency virus 1; test: Antiviral activity against recombinant HIV1 harboring reverse transcriptase V106I/V179D mutant clone infected in MAGIC-5 cells using 5-bromo4-chloro-3-indolyl-beta-D-galactopyranoside staining based light microscopy; assay type: functional, organism-based; details: Human immunodeficiency virus 1, MAGIC-5
# [6] = tested on: Human immunodeficiency virus 1; test: Resistance index, ratio of EC50 for recombinant HIV1 harboring reverse transcriptase V179D mutant clone to EC50 for wild type HIV1; assay type: functional
# [7] = tested on: Human immunodeficiency virus 1; test: Resistance index, ratio of EC50 for recombinant HIV1 harboring reverse transcriptase V106A mutant clone to EC50 for wild type HIV1; assay type: functional
# [8] = tested on: Human immunodeficiency virus 1; test: Resistance index, ratio of EC50 for recombinant HIV1 harboring reverse transcriptase V106I mutant clone to EC50 for wild type HIV1; assay type: functional
# [9] = tested on: Human immunodeficiency virus 1; test: Resistance index, ratio of EC50 for recombinant HIV1 harboring reverse transcriptase V106I/V179D mutant clone to EC50 for wild type HIV1; assay type: functional
# [10] = tested on: Human immunodeficiency virus 1; test: Antiviral activity against wild type HIV1 infected in MAGIC-5 cells using 5-bromo4-chloro-3-indolyl-beta-D-galactopyranoside staining based light microscopy; assay type: functional, organism-based; details: Human immunodeficiency virus 1, MAGIC-5
# [11] = tested on: Human immunodeficiency virus 1; test: Resistance index, ratio of EC50 for recombinant HIV1 harboring reverse transcriptase V106A/V179D mutant clone to EC50 for wild type HIV1; assay type: functional
Structure (SMILES),EC50 [1] [nM],EC50 [2] [nM],EC50 [3] [nM],EC50 [4] [nM],EC50 [5] [nM],Ratio EC50 [6],Ratio EC50 [7],Ratio EC50 [8],Ratio EC50 [9],EC50 [10] [nM],Ratio EC50 [11]
O=C1Nc2ccc(Cl)cc2[C@@](C#CC2CC2)(C(F)(F)F)O1 [EFAVIRENZ],4,3,3,13,29,–,–,–,–,–,–
Cc1cc(C#N)cc(C)c1Oc1nc(Nc2ccc(C#N)cc2)nc(N)c1Br [ETRAVIRINE],1.9,1.5,0.5,1.4,2.4,1.6,0.4,1.3,2,1.2,1.2
Cc1ccnc2c1NC(=O)c1cccnc1N2C1CC1 [NEVIRAPINE],130,20,3430,4530,370,2.6,69,0.4,7,50,91
